Measurements taken from patent US9163018B2, “Method of treatment of age-related macular degeneration (AMD)” (Prana Biotechnology Limited, priority 2006, dated 2015).

Experiments:
Aβ 1-42 = biological target: T1, Aβ 1-42 (Homo sapiens, UniProt P05067); assay: Fluorometric H2O2 assay (inhibition of Abeta H2O2 production); assay type: biochemical; settings: concentration required to inhibit 50% of Abeta H2O2 production; read-out: H2O2 IC50
T1 construct: The reaction solutions contained Aβ 1-42 at concentrations
T1 sequence (P05067 672-713 limits assumed): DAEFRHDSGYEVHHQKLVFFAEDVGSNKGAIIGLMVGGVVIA
Procedure: Assay 1. Fluorometric H2O2 Assay
A fluorometric assay was used to test the ability of a test compound to inhibit hydrogen peroxide generation by Aβ in the presence of copper based on dichlorofluoroscein diacetate (DCF; Molecular Probes, Eugene Oreg.). The DCF solution (5 mM) in 100% dimethyl sulphoxide (previously purged with argon for 2 hr at 20° C.) was deacetylated in the presence of 0.25M NaOH for 30 min and neutralized at pH 7.4 to a final concentration of 1 mM. Horseradish peroxidase (HRP) stock solution was prepared to 1 μM at pH 7.4. The reactions were carried out in PBS, pH 7.4 in a 96 well plate (total volume=250 μl/well). […] The reaction mixture was incubated at 37 C for 60 min. […] H2O2 concentration may be established by comparing fluorescence with the H2O2 standards, Inhibition of Aβ H2O2 production was assayed by including a given concentration of test compound(s) in the test wells.

[1] = test system: primary cortical neuronal cultured cells; assay: Test compound cytotoxicity, MTS assay, primary cortical neuronal cultures; assay type: cell-based, mouse; settings: for Cytotox (% viable) Neuronal cells at 1 μM: 1 μM test compound; for Cytotox (% viable) Neuronal cells at 10 μM: 10 μM test compound
Procedure: Assay 2. Neurotoxicity Assays
Primary Cortical Neuronal Cultures
Media was then replaced with Neurobasal media (Invitrogen Life Technologies) and B27 supplements (Invitrogen Life Technologies). Cultures were maintained at 37° C. in 5% CO2. Prior to experimentation, the culture medium was replaced with Neurobasal media and B27 minus antioxidants (Invitrogen Life Technologies).
Assay 3. MTS Assay for Cell Viability
Cell viability is determined using the MTS assay. Culture medium is replaced with fresh neurobasal medium plus B27 supplements minus antioxidants. 1/10th volume MTS solution (Cell Titre 96 Aqueous One, Promega Corporation) and incubated at 37° C., 2 hrs. 200 microliter aliquots are measured with a spectrophotometer at 560 nm.
Assay 4. Assay for Test Compound Cytoxicity
Neuronal cortical cells were cultured for five days as per Assay 2 in NB media and B27 supplement.
On day six the test compounds were added to the neuronal cell cultures in NB media and B27 supplement minus antioxidants.
Test compounds were dissolved in 100% DMSO to a concentration of 2.5 mM (10 mM if excess compound was weighed out per vial—then diluted to 2.5 mM).
Test compounds were not added directly to cells, instead they were added to a 48 well ‘Drug Plate’ as comprised below:
The Drug Plate was incubated at 37° C. for 15 mins. 200 μl of each well was added in triplicate to the corresponding cell plate. The cell plate was incubated at 37 C, for 4 days.
On completion of the assay, 1/10 volume MTS was added per well of plate (ie 25 μl/250 μl). The plates were incubated at 37 C for 2 hrs, and then absorbance was read at 560 nm.

[2] = test system: Abeta in extract of post-mortem human AD brain tissue; assay: BAS: human brain amyloid solubilization assay; assay type: biochemical; settings: for BAS max effect: max effect across the concentration range, referenced to baseline PBS; for BAS concentration or concentration range at which an effect is observed: units printed in each cell
Procedure: Assay 5. Human Brain Amyloid Solubilization Assay
This assay was performed in order to assess the ability of a test compound to mobilise Aβ, as an example form of amyloid, from the insoluble to the soluble phase of an extract of tissue from post mortem human AD brain.
Up to 0.5 g of plaque-bearing cortex without meninges was homogenized using a DIAX 900 homogenizer (Hendolph and Co, Kelheim, Germany) or other suitable device for three 30-second periods at full speed in 2 ml of ice-cold phosphate-buffered saline, pH 7.4. To obtain the phosphate-buffered saline-extractable fraction, the homogenate was centrifuged at 100,000×g for 30 min and the supernatant removed. Alternatively, the tissue was freeze dried then pulverized to form a powder which was then weighed out into aliquots for extraction as above. Supernatant, either freeze-dried and resuspended or in unconcentrated form, was dissolved in 200 μl of Tris-Tricine sodium dodecyl sulfate (SDS) sample buffer pH 8.3 containing 8% SDS, 10% 2-mercaptoethanol. Aliquots (10 μl) were then boiled for 10 minutes before SDS-polyacrylamide gel electrophoresis. The insoluble fraction of the cortical samples was obtained by resuspending the initial pelleted sample in 1 ml of phosphate-buffered saline, A 50-μl aliquot of this suspension was then boiled in […] of sample buffer as above.
Tris-Tricine polyacrylamide gel electrophoresis was performed by loading appropriately diluted samples on to 10% to 20% gradient gels (Novex, San Diego, Calif.) followed by transfer on to 0.2-μm nitrocellulose membrane (Bio-Rad, Hercules, Calif.). Aβ was detected by using monoclonal antibody W02, which detects residues 5 through 8, […] (or another suitable antibody) in conjunction with horseradish peroxidase-conjugated rabbit anti-mouse IgG (Dako, Denmark), and visualized by using enhanced chemiluminescence (eg ECL; Amersham Life Science, Buckinghamshire, UK). Each gel included three lanes containing 0.5, 1, and 2 ng of synthetic Aβ40 (Keck Laboratory, Yale University, New Haven, Conn.) as reference standards.
Blot films were scanned by using a suitable imaging system such as the UVP gel documentation system, and densitometry performed using suitable software, eg UVP Labworks. The dynamic range of the film/scanner was determined by using a step tablet (No. 911ST600, Kodak, Rochester N.Y.), a calibrated film exposed by the manufacturer to provided steps of known increasing intensity. The quantifiable range of signal intensity for densitometric analysis of the mono- and dimeric Aβ bands was based on the comparison with a curve obtained by scanning and densitometry of the step tablet.
All samples were analyzed at least twice, and gel loadings and dilutions were adjusted to fit within the quantifiable region of the standard curve. The proportion of ‘soluble’ to ‘insoluble’ Aβ may be used to determine the efficiency of extraction of a test compound compared with the efficiency of a known compound. The insoluble Aβ being comprised of the pelletable fraction derived from the insoluble amyloid plaque from the above cortical samples and the soluble fraction comprising monomeric and/or oligomeric soluble Aβ.

Compound | IC50 (Aβ 1-42) [nM] | Cytotox (% viable) Neuronal cells at 1 μM [1] | Cytotox (% viable) Neuronal cells at 10 μM [1] | BAS max effect [2] [%] | BAS concentration or concentration range at which an effect is observed [2]
FC(F)(F)CSc1cccc2cccnc12 [PB 913] | 990 | 100% | 95% | 450 | –
Oc1ccc(/C=C/c2ccc3cccc(O)c3n2)cc1 [PB 89] | 2500 | 100% | 75% | 233 | –
Oc1c(Br)cc(-c2cc(F)cc(F)c2)c2cccnc12 [PB 853] | 770 | Neuronal cells: 95, 95% | Neuronal cells: 95, 95% | 221 | –
NCCNC(=O)c1ccc2cccc(O)c2n1 [PB 957] | > 10000 | 106% | 96% | 190 | 1 μM, 100 μM
Oc1ccccc1-c1cc(Cl)c2cccnc2c1O [PB 947] | 1140 | 100% | 70% | 244 | –
COc1ccccc1-c1cc(-c2ccccc2OC)c2cccnc2c1O [PB 862] | < 770 | 100% | 52% | 256 | –
Cc1cccc(-c2cc(Cl)c3cccnc3c2O)c1 [PB 859] | < 670 | 98% | 73% | 266 | –
COc1ccccc1-c1cc(I)c(O)c2ncccc12 [PB 863] | < 730 | 91% | 35% | 386 | –
COc1cccc(-c2cc(Cl)c3cccnc3c2O)c1 [PB 810] | < 700 | 83% | 71% | 184 | –
O=C(Nc1nccs1)c1ccc2cccc(O)c2n1 [PB 952] | 270 | Neuronal cells: 100, 100% | Neuronal cells: 100, 100% | 268 | –
COc1cc(NS(=O)(=O)c2ccc(C)cc2)c2ncccc2c1 [PB 116] | 500 | 81% | 60% | 220 | –
Oc1c(Br)cc(-c2ccccc2)c2cccnc12 [PB 806] | < 900 | 100% | 97% | 311 | –
O=C(CNC(=O)c1cc(O)c2cccc(O)c2n1)NCCc1c[nH]cn1 [PB 987] | 1800 | 98% | 89% | 393 | –
Cc1ccc(-c2ccc(C)cn2)nc1 [PB 896] | 150 | – | Neuronal cells: 86% (at 10 uM) | 358 | –
CN1CCCN(C)CCN(C)CCCN(C)CC1 [PB 933] | 110 | – | Neuronal cells: 127% (at 10 μM) | 279 | –
Oc1c(-c2ccccc2C(F)(F)F)cc(Cl)c2cccnc12 [PB 864] | 770 | 96% | 93% | 208 | –
O=C(NCCc1cnc[nH]1)c1ccc2cccc(O)c2n1 [PB 948] | 150 | 100, 100% | 100, 100% | 576 | –
Cc1cnc(NC(=O)c2ccc3cccc(O)c3n2)s1 [PB 953] | < 420 | 94% | 68% | 325 | –
Oc1cccc2ccc(CNCc3ccccn3)nc12 [PB 991] | 470 | 96% | 67% | 222 | –
Cc1ccccc1-c1cc(-c2ccccc2C)c2cccnc2c1O [PB 852] | 2100 | 93% | 34% | 220 | –
CN(CCc1ccccn1)Cc1ccc2cccc(O)c2n1 [PB 990] | 400 | 97% | 57% | 183 | –
Oc1c(I)cc(-c2ccccc2C(F)(F)F)c2cccnc12 [PB 860] | 790 | 91% | 90% | 160 | –
Cc1ccccc1-c1cc(Cl)c2cccnc2c1O [PB 854] | 780 | Neuronal cells: 100, 100% | Neuronal cells: 100, 100% | 520 | –
Cl.Nc1ccc(O)c2ncccc12 [PB 44] | > 10000 | 108% | 71% | 191 | –
O=C(NCCc1cnc[nH]1)c1cc(O)c2cccc(O)c2n1 [PB 954] | 120 | Neuronal cells: 100, 100% | Neuronal cells: 100, 100% | 134 | 1 µM
O/N=C/c1ccc2cccc(O)c2n1 [PB 969] | 540 | 100% | 95% | 385 | –
O=C(CNC(=O)c1cc(O)c2cccc(O)c2n1)NCc1ccccn1 [PB 988] | > 10000 | Neuronal cells: 93, 93% | Neuronal cells: 93, 93% | 137 | –
Oc1c(-c2ccccc2)cc(-c2ccccc2)c2cccnc12 [PB 809] | < 1800 | 97% | 26% | 146 | –
O=C(NCc1ccccn1)c1ccc2cccc(O)c2n1 [PB 949] | 430 | 96% | 85% | 201 | –
